Experimental data reported in patent publication US5221752A, “α-keto amide derivatives” (Nippon Kayaku Kabushiki Kaisha, priority 1990, dated 1993).
*1 amine or outer side, *2 acyl side, *3 side chain or, on linkers, in order; H or OH if unused. Where a SMILES comes first, the peptide text is derived from it. [ ]: non-standard residue; d: D form. The star is where a group is joined. ξ: configuration not given here. X1 = O=C(C(=O)[*:2])C1CCCN1[*:1]; Cbz = O=C(OCc1ccccc1)*; ξV = CC(C)C(N)C(=O)O; OBn = c1ccc(CO*)cc1

Biological target: T1, prolyl endopeptidase (Sus scrofa, UniProt P23687)
T1 construct: prolyl endopeptidase obtained from porcine kidneys used as the enzyme; from tissue; host or cells: porcine kidneys
Test: Enzyme inhibiting activity (prolyl endopeptidase; substrate benzyloxycarbonylglycylproline β-naphthylamide)
Assay type: biochemical, porcine
Procedure: Experiments were conducted to evaluate the enzyme inhibiting activity of the compounds of the present invention by using prolyl endopeptidase as the enzyme model. They are given in the following Test Examples.
Method of Assaying Enzyme Inhibiting Activity
Benzyloxycarbonylglycylproline β-naphthylamide (0.1 mM) used as the substrate was reacted with prolyl endopeptidase obtained from porcine kidneys used as the enzyme in a 0.025 M tris(hydroxymethyl)methanamine hydrochloric acid solution (pH: 7.5) at 37° C. reaction mixture for 30 min and then the absorbance of the product at 525 nm was measured.

T1 sequence (P23687 whole entry): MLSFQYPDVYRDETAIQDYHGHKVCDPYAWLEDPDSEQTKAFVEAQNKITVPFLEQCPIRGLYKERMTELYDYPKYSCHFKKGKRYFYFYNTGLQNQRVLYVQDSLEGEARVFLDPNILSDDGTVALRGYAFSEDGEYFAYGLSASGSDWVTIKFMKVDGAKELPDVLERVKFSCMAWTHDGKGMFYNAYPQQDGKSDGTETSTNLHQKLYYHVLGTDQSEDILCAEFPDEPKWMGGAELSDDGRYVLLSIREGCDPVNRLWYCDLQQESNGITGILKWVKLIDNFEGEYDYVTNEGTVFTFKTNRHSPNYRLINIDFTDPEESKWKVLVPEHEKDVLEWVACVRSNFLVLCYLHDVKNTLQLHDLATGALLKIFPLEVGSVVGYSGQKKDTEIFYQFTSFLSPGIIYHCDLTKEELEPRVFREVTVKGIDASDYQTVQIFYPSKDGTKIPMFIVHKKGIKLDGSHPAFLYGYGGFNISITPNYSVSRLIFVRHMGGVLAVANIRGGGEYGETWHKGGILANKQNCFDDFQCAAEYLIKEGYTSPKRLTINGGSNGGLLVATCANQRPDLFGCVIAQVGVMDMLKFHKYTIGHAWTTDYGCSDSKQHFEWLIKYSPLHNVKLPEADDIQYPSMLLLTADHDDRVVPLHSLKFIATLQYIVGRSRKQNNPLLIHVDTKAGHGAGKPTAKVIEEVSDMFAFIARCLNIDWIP

| Compound | IC50 [nM] | IC50 (concentration necessary for 50% inhibition) (prolyl endopeptidase from porcine kidneys, substrate 0.1 mM, pH 7.5, 37° C., 30 min, absorbance 525 nm) [ng/mL] |
| --- | --- | --- |
| CC(C)C[C@@H](NC(=O)C(=O)C1CCCN1C(=O)C(NC(=O)C(NC(=O)OCc1ccccc1)C(C)C)C(C)C)C(=O)NC(C(=O)OCc1ccccc1)C(C)C (stereo partly drawn) [Example 7, N-Benzyloxycarbonylvalylvalyl-[2-oxo-2-(pyrrolidin-2-yl)acetyl]-D-leucylvaline benzyl ester] (Cbz-[ξV][ξV][X1][dL][ξV]-OBn) | 9 | – |
| CC(C)C[C@@H](NC(=O)C(=O)C1CCCN1C(=O)C(NC(=O)C(N)C(C)C)C(C)C)C(=O)NC(C(=O)O)C(C)C (stereo partly drawn) [Example 8, Valylvalyl-[2 oxo 2-(pyrrolidin-2-yl)acetyl]-D-leucylvaline] (H-[ξV][ξV][X1][dL][ξV]-OH) | 19.9 | – |
| CC(C)C[C@@H](NC(=O)C(=O)C1CCCN1C(=O)CC(C)(C)C)C(=O)OC(C)(C)C (stereo partly drawn) [Example 14, [2-Oxo-2-(N-(3,3-dimethylbutanoyl)pyrrolidin-2-yl)-acetyl]-D-leucine t-butyl ester] | 21.9 | – |
| CC(C)C[C@@H](NC(=O)C(=O)C1CCCN1C(=O)OCc1ccccc1)C(=O)OC(C)(C)C (stereo partly drawn) [Example 15, [2-Oxo-2-(N-benzyloxycarbonylpyrrolidin-2-yl)acetyl]-D-leucine t-butyl ester] | 103 | – |
| CC(C)C[C@@H](NC(=O)C(=O)C1CCCN1C(=O)C(Cc1ccccc1)NC(=O)OCc1ccccc1)C(=O)OC(C)(C)C (stereo partly drawn) [Example 16, N-Benzyloxycarbonylphenylalanyl-[2-oxo-2-(pyrrolidin-2-yl)acetyl]-D-leucin t-butyl ester] | 3.37 | – |
| CC(C)C[C@@H](NC(=O)C(=O)C1CCCN1C(=O)C(Cc1ccccc1)NC(=O)OCc1ccccc1)C(=O)O (stereo partly drawn) [Example 17, N-Benzyloxycarbonylphenylalanyl-[2-oxo-2-(pyrrolidin-2-yl)acetyl)-D-leucine] | 2.42 | – |
| CC(C)C[C@@H](NC(=O)C(=O)C1CCCN1C(=O)C(Cc1ccccc1)NC(=O)OCc1ccccc1)C(=O)NC(C)(C)C (stereo partly drawn) [Example 19, N-Benzyloxycarbonylphenylalanyl-[2-oxo-2-(pyrrolidin-2-yl)acetyl]-D-leucinet-butylamide] | 2.36 | – |
| CC(C)C[C@@H](NC(=O)C(=O)C1CCCN1C(=O)C1CCCN1C(=O)OCc1ccccc1)C(=O)NC(C(=O)OCc1ccccc1)C(C)C (stereo partly drawn) [Example 20, N-Benzyloxycarbonylprolyl-[2-oxo-2-(pyrrolidin-2-yl)acetyl]-D-leucylvaline benzyl ester] | 3.25 | – |
| CC(C)(C)OC(=O)CNC(=O)C(=O)C1CCCN1C(=O)C(Cc1ccccc1)NC(=O)OCc1ccccc1 (stereo not drawn) [Example 21, N-Benzyloxycarbonylphenylalanyl-[2-oxo-2-(pyrrolidin-2-yl)acetyl]-glycine t-butyl ester] | 1.49 | – |
| O=C(O)CNC(=O)C(=O)C1CCCN1C(=O)C(Cc1ccccc1)NC(=O)OCc1ccccc1 (stereo not drawn) [Example 22, N-Benzyloxycarbonylphenylalanyl-[2-oxo-2-(pyrrolidin-2-yl)acetyl]-glycine] | 2.28 | – |
| CC(C)CC(NC(=O)C(=O)C1CCCN1C(=O)C(Cc1ccccc1)NC(=O)OCc1ccccc1)C(=O)OC(C)(C)C (stereo not drawn) [Example 23, N-benzyloxycarbonylphenylalanyl-[2-oxo-2-(pyrrolidin-2-yl)acetyl]-leucine t-butyl ester] | 3.03 | – |
| N-Benzyloxycarbonylphenylalanyl-[2 hydroxy-2-(pyrrolidin-2-yl)acetyl]-D-leucylvaline benzyl ester [Example 9] | – | 2.4 |
